Measurements published in patent US9115137B2, “2,3,4,5-tetrahydro-1H-pyrido[4,3-B]indole compounds and methods of use thereof” (priority 2008, dated 2015).

Key:
[1] = biological target: T1, rat adrenergic α1B receptor (Rattus norvegicus, UniProt P15823); test: Adrenergic α1B radioligand binding ([3H]Prozosin); details: compound at 1 μM; Wistar Rat liver; read-out: Adrenergic (1 μM) α1B, percent inhibition of specific binding
T1 construct: obtained from Wistar Rat liver; from tissue; host or cells: Wistar rat liver
T1 sequence (P15823 1-515): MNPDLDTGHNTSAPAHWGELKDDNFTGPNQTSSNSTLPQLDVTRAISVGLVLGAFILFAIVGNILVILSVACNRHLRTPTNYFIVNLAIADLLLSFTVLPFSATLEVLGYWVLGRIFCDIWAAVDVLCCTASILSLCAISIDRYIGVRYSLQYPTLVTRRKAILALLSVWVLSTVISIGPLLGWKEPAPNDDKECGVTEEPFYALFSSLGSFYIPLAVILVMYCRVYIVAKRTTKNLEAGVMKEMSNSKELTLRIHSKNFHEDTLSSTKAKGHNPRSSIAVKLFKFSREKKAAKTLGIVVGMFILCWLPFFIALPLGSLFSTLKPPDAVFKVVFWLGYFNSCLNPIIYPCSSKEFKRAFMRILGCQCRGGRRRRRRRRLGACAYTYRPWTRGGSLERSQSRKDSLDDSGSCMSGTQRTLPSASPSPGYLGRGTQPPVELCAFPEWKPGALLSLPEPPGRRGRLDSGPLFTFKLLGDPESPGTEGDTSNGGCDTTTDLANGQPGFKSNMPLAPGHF
Description: To evaluate in radioligand binding assays the activity of compounds of the invention, rat adrenergic α1B receptor obtained from Wistar Rat liver (Garcia-S'ainz, J. A. et al., Biochem. Biophys. Res. Commun. 186:760, 1992; Michel A. D. et al. Br. J. Pharmacol. 98:883, 1989) in a modified Tris-HCl buffer (50 mM Tris-HCl buffer, pH 7.4, 0.5 mM EDTA) was used. Compounds of the invention were incubated with 0.25 nM [^3H]Prozosin for 60 minutes at 25° C. Non-specific binding was estimated in the presence of 10 μM phentolamine. Receptor proteins were filtered and washed, the filters were then counted to determine [^3H]Prozosin specifically bound. Compounds were screened at 1 μM or lower, using 1% DMSO as vehicle. Compounds of the invention were tested in this biochemical assay and percent inhibition of specific binding was determined. Biochemical assay results are presented as the percent inhibition of specific binding in Table 6.

[2] = biological target: T2, human recombinant adrenergic α2C receptor (Homo sapiens, UniProt P18825); test: Adrenergic α2C radioligand binding ([3H]MK-912); details: compound at 1 μM; insect Sf9 cells; read-out: Adrenergic (1 μM) α2C, percent inhibition of specific binding
T2 construct: expressed in transfected cells; host or cells: insect Sf9 cells
T2 sequence (P18825 1-462): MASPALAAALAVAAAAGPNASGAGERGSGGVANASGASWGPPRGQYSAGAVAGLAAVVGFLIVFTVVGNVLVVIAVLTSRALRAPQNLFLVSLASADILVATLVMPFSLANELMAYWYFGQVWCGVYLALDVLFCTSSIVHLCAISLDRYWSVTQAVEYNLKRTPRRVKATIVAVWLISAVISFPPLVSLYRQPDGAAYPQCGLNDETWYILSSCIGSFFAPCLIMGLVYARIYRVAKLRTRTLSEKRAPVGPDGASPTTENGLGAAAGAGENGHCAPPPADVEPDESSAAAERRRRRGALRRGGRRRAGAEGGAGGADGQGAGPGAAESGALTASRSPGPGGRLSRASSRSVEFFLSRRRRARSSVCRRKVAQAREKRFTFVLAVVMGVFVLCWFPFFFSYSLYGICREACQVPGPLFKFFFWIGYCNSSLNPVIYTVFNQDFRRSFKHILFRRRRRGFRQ
Description: To evaluate in radioligand binding assays the activity of compounds of the invention, human recombinant adrenergic α2C receptor expressed in insect Sf9 cells (Uhlen S et al. J Pharmacol Exp Ther. 271:1558, 1994) in a modified Tris-HCl buffer (50 mM Tris-HCl, pH 7.4, 12.5 mM MgCl2, 2 mM EDTA) was used. Compounds of the invention were incubated with 1 nM [^3H]MK-912 for 60 minutes at 25° C. Non-specific binding was estimated in the presence of 10 μM WB-4101. Receptor proteins were filtered and washed, the filters were then counted to determine [^3H]MK-912 specifically bound. Compounds were screened at 1 μM or lower, using 1% DMSO as vehicle. Compounds of the invention were tested in this biochemical assay and percent inhibition of specific binding was determined. Biochemical assay results are presented as the percent inhibition of specific binding in Table 6.

[3] = biological target: T3, human recombinant serotonin (5-Hydroxytryptamine) 5-HT2B receptor (Homo sapiens, UniProt P41595); test: Serotonin 5-HT2B radioligand binding ([3H]LSD); details: compound at 1 μM; CHO-K1 cells; read-out: Serotonin (1 μM) 5-HT2B, percent inhibition of specific binding
T3 construct: expressed in transfected cells; host or cells: CHO-K1 cells
T3 sequence (P41595 whole entry): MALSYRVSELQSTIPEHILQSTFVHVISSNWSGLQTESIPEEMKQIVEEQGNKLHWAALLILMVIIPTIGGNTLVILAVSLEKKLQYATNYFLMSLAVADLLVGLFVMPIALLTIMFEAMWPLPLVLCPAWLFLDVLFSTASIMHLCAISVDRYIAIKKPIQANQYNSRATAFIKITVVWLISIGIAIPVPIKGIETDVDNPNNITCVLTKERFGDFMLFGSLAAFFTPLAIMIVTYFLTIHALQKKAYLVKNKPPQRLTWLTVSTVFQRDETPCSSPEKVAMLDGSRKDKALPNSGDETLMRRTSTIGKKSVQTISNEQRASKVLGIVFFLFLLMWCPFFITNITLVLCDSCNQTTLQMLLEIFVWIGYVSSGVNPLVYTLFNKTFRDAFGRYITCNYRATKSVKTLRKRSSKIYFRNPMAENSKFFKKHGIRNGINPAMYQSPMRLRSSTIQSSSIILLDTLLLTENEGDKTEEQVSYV
Description: To evaluate in radioligand binding assays the activity of compounds of the invention, human recombinant serotonin (5-Hydroxytryptamine) 5-HT2B receptor expressed in Chinese hamster ovary (CHO-K1) cells (Bonhaus, D. W. et al., Br. J. Pharmacol. 115:622, 1995) in a modified Tris-HCl buffer (50 mM Tris-HCl, pH 7.4, 4 mM CaCl2, 0.1% Ascorbic Acid) was used. Compounds of invention were incubated with 1.2 nM [^3H]Lysergic acid diethylamide (LSD) for 60 minutes at 37° C. Non-specific binding was estimated in the presence of 10 μM Serotonin (5-HT). Receptor proteins were filtered and washed, the filters were then counted to determine [^3H]LSD specifically bound. Compounds were screened at 1 μM or lower, using 1% DMSO as vehicle. Compounds of the invention were tested in this biochemical assay and percent inhibition of specific binding was determined. Biochemical assay results are presented as the percent inhibition of specific binding in Table 7.

| SMILES | inhibition at 1 µM [1] | inhibition at 1 µM [2] | inhibition at 1 µM [3] |
| --- | --- | --- | --- |
| CCOC(=O)CCn1c2c(c3cc(C)ccc31)CN(C)CC2 [CD1, ethyl 3-(1,2,3,4-tetrahydro-2,8-dimethylpyrido[4,3-b]indol-5-yl)propanoate] | 42% | 42% | 54% |
| Cc1ccc2c(c1)c1c(n2CC#N)CCN(C)C1 [CD61, 2-(1,2,3,4-tetrahydro-2,8-dimethylpyrido[4,3-b]indol-5-yl)acetonitrile] | 94% | 39% | 43% |
| C#CCn1c2c(c3cc(C)ccc31)CN(C)CC2 [CD73, 2,8-dimethyl-5-(prop-2-ynyl)-2,3,4,5-tetrahydro-1H-pyrido[4,3-b]indole] | 84% | 43% | 94% |
| CNC(=O)CCn1c2c(c3cc(C)ccc31)CN(C)CC2 [Compound 1, 3-(1,2,3,4-tetrahydro-2,8-dimethylpyrido[4,3-b]indol-5-yl)-N-methylpropanamide] | 13% | 4% | 23% |
| CCNC(=O)CCn1c2c(c3cc(C)ccc31)CN(C)CC2 [Compound 2, N-ethyl-3-(1,2,3,4-tetrahydro-2,8-dimethylpyrido[4,3-b]indol-5-yl)propanamide] | 22% | 2% | 20% |
| Cc1ccc2c(c1)c1c(n2CCC(=O)NC2CCCCC2)CCN(C)C1 [Compound 3, N-cyclohexyl-3-(1,2,3,4-tetrahydro-2,8-dimethylpyrido[4,3-b]indol-5-yl)propanamide] | 14% | 1% | 21% |
| Cc1ccc2c(c1)c1c(n2CCC(=O)NC2CCCC2)CCN(C)C1 [Compound 4, N-cyclopentyl-3-(1,2,3,4-tetrahydro-2,8-dimethylpyrido[4,3-b]indol-5-yl)propanamide] | 41% | 4% | 40% |
| CCOC(=O)CCCn1c2c(c3cc(C)ccc31)CN(C)CC2 [Compound 5, ethyl 4-(1,2,3,4-tetrahydro-2,8-dimethylpyrido[4,3-b]indol-5-yl)butanoate] | 77% | 50% | 77% |
| CCNC(=O)CCCn1c2c(c3cc(C)ccc31)CN(C)CC2 [Compound 6, N-ethyl-4-(1,2,3,4-tetrahydro-2,8-dimethylpyrido[4,3-b]indol-5-yl)butanamide] | 31% | 48% | 21% |
| Cc1ccc2c(c1)c1c(n2CCNC(=O)OCC(Cl)(Cl)Cl)CCN(C)C1 [Compound 8, 2,2,2-trichloroethyl 2-(1,2,3,4-tetrahydro-2,8-dimethylpyrido[4,3-b]indol-5-yl)ethylcarbamate] | 80% | 22% | 64% |
| Cc1ccc2c(c1)c1c(n2CCNC(=O)C2CCCNC2)CCN(C)C1 (stereo not drawn) [Compound 9, N-(2-(1,2,3,4-tetrahydro-2,8-dimethylpyrido[4,3-b]indol-5-yl)ethyl)piperidine-3-carboxamide] | 21% | -8% | -5% |
